For series [1], the system named is Staphylococcus aureus. As to the kind of experiment: Antibacterial activity against Staphylococcus aureus assessed as inhibition of bacterial growth. Type of series: functional.
In series [2] the test system is Staphylococcus aureus. The experiment in a line: Antibacterial activity against methicillin resistant Staphylococcus aureus N315 assessed as inhibition of bacterial growth. Type of series: functional.
The test system of series [3] is Enterococcus faecalis. As to the kind of experiment: Antibacterial activity against Enterococcus faecalis assessed as inhibition of bacterial growth. Format: functional.
Series [4] has as its system Staphylococcus aureus. As to the kind of experiment: Antibacterial activity against Staphylococcus aureus ATCC 25923 assessed as inhibition of bacterial growth. Type of series: functional.
For series [5], the system named is Staphylococcus aureus. The experiment in a line: Antibacterial activity against Staphylococcus aureus ATCC 29213 assessed as inhibition of bacterial growth. Format: functional.
Series [6] has as its system Klebsiella pneumoniae. The experiment in a line: Antibacterial activity against Klebsiella pneumoniae assessed as inhibition of bacterial growth. Type of series: functional.
Series [7] deals with Escherichia coli. As to the kind of experiment: Antibacterial activity against Escherichia coli assessed as inhibition of bacterial growth. Format: functional.
The subject of series [8] is Escherichia coli. The experiment in a line: Antibacterial activity against Escherichia coli ATCC 25922 assessed as inhibition of bacterial growth. Format: functional.
Series [9] has as its system Pseudomonas aeruginosa. As to the kind of experiment: Antibacterial activity against Pseudomonas aeruginosa assessed as inhibition of bacterial growth. Type of series: functional.
Series [10] deals with Pseudomonas aeruginosa. As to the kind of experiment: Antibacterial activity against Pseudomonas aeruginosa ATCC 27853 assessed as inhibition of bacterial growth. Format: functional.
For series [11], the system named is Acinetobacter baumannii. The experiment in a line: Antibacterial activity against Acinetobacter baumannii assessed as inhibition of bacterial growth. Format: functional.
For series [12], the system named is Acinetobacter baumannii. The experiment in a line: Antibacterial activity against Acinetobacter baumannii assessed as reduction in GSH activity by Ellman's method. Format: functional, organism-based. To be noted: DDE = dose-dependent effect. (In general: Ellman's reagent forms a yellow product with free thiols.)
Series [13] has as its system Calf thymus DNA. As to the kind of experiment: Binding affinity to calf thymus DNA assessed as reduction in fluorescence intensity of acridine orange-DNA complex formation by measuring […] by competitive binding assay. Format: nucleic-acid assay. To be noted: Bos taurus; DDE = dose-dependent effect.
Series [14] is described as follows: Cytotoxicity against human endothelial cells assessed as cell viability at 10 ug/ml by CCK8 method relative to control. Type of series: toxicity, cell-based. To be noted: at 10 µg/mL, read-out: Activity. On the technique in general: Formazan colour is commonly taken as a measure of viable cells.
A short description of series [15]: Cytotoxicity against human liver cancer cells assessed as cell viability at 10 ug/ml by CCK8 method relative to control. Type of series: functional. To be noted: read-out: Activity.
A short description of series [16]: Hemolytic activity in human RBC assessed as hemolysis rate at 64 times MIC relative to control. Format: toxicity, cell-based, Erythrocyte. To be noted: red blood cells (erythrocytes), read-out: Activity.
The test system of series [17] is Acinetobacter baumannii. As to the kind of experiment: Anti- biofilm activity against Acinetobacter baumannii assessed as decrease in biofilm viability at 2 ug/ml by resazurin dye based assay relative to control. Format: functional. The note with it: dose 2 µg/ml. (In general: Alamar Blue is a resazurin reagent that responds to reducing activity.)
In series [18] the test system is Cell membrane. As to the kind of experiment: Induction of cell membrane depolarization in Acinetobacter baumannii assessed as increase in fluorescence intensity at MIC by DiSC35 dye-based fluorescence assay. Format: subcellular. The note with it: time <= 60.0 min, TDE = time-dependent effect.
Series [19] relates to Cell membrane. The experiment in a line: Induction of outer membrane permeabilization in Acinetobacter baumannii assessed as increase in fluorescence intensity at MIC by NPN-dye based fluorescence assay. Type of series: subcellular. To be noted: time <= 120.0 min.
Series [20] relates to Cell membrane. The experiment in a line: Induction of inner membrane permeabilization in Acinetobacter baumannii assessed as increase in fluorescence intensity by propidium iodide staining based fluorescence analysis. Type of series: subcellular. The note with it: DDE = dose-dependent effect.
Series [21] relates to Cell membrane. As to the kind of experiment: Induction of inner membrane permeabilization in Acinetobacter baumannii assessed as increase in red fluorescence intensity by fluorescence microscopic analysis.
The subject of series [22] is Cell membrane. The experiment in a line: Induction of cell membrane damage in Acinetobacter baumannii assessed as increase in protein leakage. Type of series: subcellular.
The test system of series [23] is Cell membrane. As to the kind of experiment: Induction of cell membrane damage in Acinetobacter baumannii assessed as increase in nucleic acid leakage by measuring fold increase in absorbance at 8 times MIC by spectrophotometry. Format: subcellular.
Series [24] deals with Cell membrane. As to the kind of experiment: Induction of cell membrane destruction in Acinetobacter baumannii assessed as reduction in metabolic activity. To be noted: DDE = dose-dependent effect. Type of series: subcellular.
In series [25] the test system is Acinetobacter baumannii. The experiment in a line: Induction of ROS production in Acinetobacter baumannii by DCFH-DA staining based fluorescence analysis. Format: functional. The note with it: DDE = dose-dependent effect.
For series [26], the system named is Acinetobacter baumannii. The experiment in a line: Induction of ROS production in Acinetobacter baumannii assessed as fold change at 16 times MIC by DCFH-DA staining based fluorescence analysis. Type of series: functional.
For series [27], the system named is Acinetobacter baumannii. As to the kind of experiment: Antibacterial activity against Acinetobacter baumannii assessed fold increase in malondialdehyde production measured at upto 16 times MIC. Format: functional.
Series [28] has as its system Calf thymus DNA. As to the kind of experiment: Binding affinity to calf thymus DNA assessed as hypochromic shift by UV-vis spectrophotometric analysis. Format: nucleic-acid assay. To be noted: Bos taurus.

In brackets after ≈: the same amount, converted by molar mass. Activity calls are given as the source filed them. No cut-off for these calls is given here.

In general, MIC refers to the lowest concentration that inhibits growth of the organism. Regarding `COc1ccc(/C=C2\S/C(=N/c3ccc4c(C)cc(=O)oc4c3)N(CCO)C2=O)cc1`, the MIC in series [1] was found to be 32 µg/mL (≈ 73.3 µM); in [2], 4 µg/mL (≈ 9.16 µM); in [3], 8 µg/mL (≈ 18.3 µM); in series [4], 32 µg/mL (≈ 73.3 µM); in series [5], 0.5 µg/mL (≈ 1.15 µM); in series [6], 128 µg/mL (≈ 293 µM). Also, the MIC in series [7] stood at 32 µg/mL (≈ 73.3 µM); in series [8] it was 128 µg/mL (≈ 293 µM); in [9], 64 µg/mL (≈ 147 µM); in [10], 128 µg/mL (≈ 293 µM); in series [11], 8 µg/mL (≈ 18.3 µM).

Consider `C=CCn1cc(/C=C2\S/C(=N/c3ccc4c(C)cc(=O)oc4c3)N(CCO)C2=O)c2ccccc21`, for which the MIC in series [1] is 128 µg/mL (≈ 264 µM); in series [2], 128 µg/mL (≈ 264 µM); in series [3], 128 µg/mL (≈ 264 µM); in series [4] it was 32 µg/mL (≈ 65.9 µM); in series [5] it was 64 µg/mL (≈ 132 µM); in series [6], 8 µg/mL (≈ 16.5 µM). The MIC is 128 µg/mL (≈ 264 µM) in series [7]; 128 µg/mL (≈ 264 µM) in series [8]; 64 µg/mL (≈ 132 µM) in series [9]; 32 µg/mL (≈ 65.9 µM) in series [10]; 64 µg/mL (≈ 132 µM) in series [11].

As to `Cc1cc(=O)oc2cc(/N=C3/S/C(=C\c4ccccc4F)C(=O)N3CCO)ccc12`, the MIC in series [1] was 1 µg/mL (≈ 2.36 µM); in series [2], 4 µg/mL (≈ 9.42 µM); in [3] it was 0.25 µg/mL (≈ 0.589 µM); in series [4], 32 µg/mL (≈ 75.4 µM); in [5], 64 µg/mL (≈ 151 µM); in series [6], 32 µg/mL (≈ 75.4 µM). In addition, the MIC in [7] stood at 32 µg/mL (≈ 75.4 µM); in series [8], 16 µg/mL (≈ 37.7 µM); in series [9], 4 µg/mL (≈ 9.42 µM); in [10] it was 1 µg/mL (≈ 2.36 µM); in [11] it was 16 µg/mL (≈ 37.7 µM).

In the case of `Cc1cc(=O)oc2cc(/N=C3/S/C(=C\c4c[nH]c5ccccc45)C(=O)N3CCO)ccc12`, the Activity result in [12] was “Dde”; in series [13], “Dde”; in series [17], 45%; in series [18] it was “Tde”; in [20], “Dde”; in series [24], “Dde”. For the same molecule, in series [25], the Activity entry was “Dde”. Besides, the MIC was determined as 2 µg/mL (≈ 4.49 µM) in [1]; 0.25 µg/mL (≈ 0.561 µM) in series [2]; 0.25 µg/mL (≈ 0.561 µM) in [3]; 0.25 µg/mL (≈ 0.561 µM) in [4]; 0.25 µg/mL (≈ 0.561 µM) in series [5]; 0.5 µg/mL (≈ 1.12 µM) in series [6]. Also, the MIC is 0.25 µg/mL (≈ 0.561 µM) in series [7]; 1 µg/mL (≈ 2.24 µM) in series [8]; 256 µg/mL (≈ 575 µM) in series [9]; 32 µg/mL (≈ 71.8 µM) in [10]; 0.25 µg/mL (≈ 0.561 µM) in series [11]. The viability at 10 ug/ml in series [14] was determined as 75%. In addition, in [15], the viability at 10 µg/mL came out at 47%. Also, in series [16], the hemolysis at 64 times MIC was less than 5%. Moreover, the outcome in series [19], in [21], in series [22] and in series [28] was Active. Moreover, the fold change (FC) in series [23] was found to be 3.8; in series [26] it was 5.3; in series [27], 3.

Regarding `Cc1cc(=O)oc2cc(/N=C3/S/C(=C\c4ccco4)C(=O)N3CCO)ccc12`, the MIC is 128 µg/mL (≈ 323 µM) in series [1]; 8 µg/mL (≈ 20.2 µM) in series [2]; 16 µg/mL (≈ 40.4 µM) in series [3]; 256 µg/mL (≈ 646 µM) in [4]; 32 µg/mL (≈ 80.7 µM) in series [5]; 128 µg/mL (≈ 323 µM) in [6]. Moreover, the MIC in series [7] is 128 µg/mL (≈ 323 µM); in series [8], 4 µg/mL (≈ 10.1 µM); in series [9] it was 64 µg/mL (≈ 161 µM); in series [10], 32 µg/mL (≈ 80.7 µM); in [11], 1 µg/mL (≈ 2.52 µM).

For the molecule `CCn1cc(/C=C2\S/C(=N/c3ccc4c(C)cc(=O)oc4c3)N(CCO)C2=O)c2ccccc21`, the MIC was 128 µg/mL (≈ 270 µM) in [1]; 128 µg/mL (≈ 270 µM) in series [2]; 128 µg/mL (≈ 270 µM) in series [3]; 64 µg/mL (≈ 135 µM) in series [4]; 128 µg/mL (≈ 270 µM) in series [5]; 64 µg/mL (≈ 135 µM) in [6]. The MIC worked out at 64 µg/mL (≈ 135 µM) in series [7]; 128 µg/mL (≈ 270 µM) in [8]; 64 µg/mL (≈ 135 µM) in series [9]; 32 µg/mL (≈ 67.6 µM) in series [10]; 64 µg/mL (≈ 135 µM) in series [11].

Source of the values: ChEMBL document CHEMBL5131495, “Discovery of unique thiazolidinone-conjugated coumarins as novel broad spectrum antibacterial agents” (Eur J Med Chem, 2022).
